For `Nc1ccc(-n2cc(C(=O)O)c(=O)c3cc(F)c(N/N=C/c4ccccc4)cc32)cc1` [Compound 7, 1-(4-aminophenyl)-7-(2-benzylidenehydrazinyl)-6-fluoro-4-oxo-1,4-dihydroquinoline-3-carboxylic acid], the melting point lay in the range of 314 to 316 °C.

`Nc1ccc(-n2cc(C(=O)O)c(=O)c3cc(F)c(N/N=C/c4ccc(F)cc4)cc32)cc1` [Compound 8, 1-(4-aminophenyl)-6-fluoro-7-[2-(4-fluorobenzylidene)hydrazinyl]-4-oxo-1,4-dihydroquinoline-3-carboxylic acid] yielded a melting point of 308 to 310 °C.

On to `COc1ccc(/C=N/Nc2cc3c(cc2F)c(=O)c(C(=O)O)cn3-c2ccc(N)cc2)cc1` [Compound 9, 1-(4-aminophenyl)-6-fluoro-7-(2-(4-methoxybenzylidene)hydrazinyl)-4-oxo-1,4-dihydroquinoline-3-carboxylic acid], for which the melting point fell in the range of 307 to 309 °C.

Regarding `COc1ccc(/C=N/Nc2cc3c(cc2F)c(=O)c(C(=O)O)cn3-c2ccc(N)cc2F)cc1` [Compound 10, 1-(4-amino-2-fluorophenyl)-6-fluoro-7-[2-(4-methoxybenzylidene)hydrazinyl]-4-oxo-1,4-dihydroquinoline-3-carboxylic acid], the melting point was in the range of 321 to 322 °C.

As to `Nc1ccc(-n2cc(C(=O)O)c(=O)c3cc(F)c(N/N=C/c4ccncc4)cc32)c(F)c1` [Compound 11, 1-(4-amino-2-fluorophenyl)-6-fluoro-4-oxo-7-[2-(pyridin-4-ylmethylene)hydrazinyl]-1,4-dihydroquinoline-3-carboxylic acid], the melting point lay in the range of 176 to 178 °C.

One may read the melting point as the temperature of the solid-liquid transition.
